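Cultured in 96-well plates, cells were exposed to test compound for 48 hours across five concentrations. TGI is the concentration that stops growth completely.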

Some test systems named below: SW-620 colon; SF-268 CNS; OVCAR-8 ovarian; HT29 colon; OVCAR-5 ovarian; MALME-3M melanoma; NCI/ADR-RES ovarian; KM12 colon; RPMI-8226 leukemia; LOX IMVI melanoma; HOP-92 NSCLC; K-562 leukemia; SF-295 CNS; HCT-116 colon; MDA-N; SF-539 CNS; 786-0 renal; UACC-257 melanoma; HCC-2998 colon.
Holding throughout (test): DTP human tumour cell line panel, 48 h

By TGI is commonly meant the concentration giving total growth inhibition. Consider `O=C1/C(=C/c2cccc(Br)c2)Cc2ccccc21`, for which the TGI with SW-620 colon, in the assay with SF-268 CNS, with OVCAR-8 ovarian, with HT29 colon, in the assay on OVCAR-5 ovarian and in the assay with MALME-3M melanoma was greater than 100 µM in each case. For the same compound, the TGI in the assay on NCI/ADR-RES ovarian, in the assay with KM12 colon, with RPMI-8226 leukemia, in the assay with LOX IMVI melanoma, in the assay on HOP-92 NSCLC and with K-562 leukemia was greater than 100 µM in each case. Moreover, the TGI with SF-295 CNS, with HCT-116 colon, in the assay with MDA-N, with SF-539 CNS, in the assay on 786-0 renal and in the assay on UACC-257 melanoma was greater than 100 µM in each case.

Take `Fc1ccc(C(=C2CCN(CCc3ccc4[nH]c(=S)[nH]c4c3)CC2)c2ccc(F)cc2)cc1`: the TGI was greater than 100 µM in the assay with SW-620 colon; 25.9 µM in the assay with SF-268 CNS; 8.26 µM with OVCAR-8 ovarian; 3.82 µM with HT29 colon; 23 µM in the assay on OVCAR-5 ovarian; 3.89 µM in the assay on MALME-3M melanoma. Also, the TGI in the assay on NCI/ADR-RES ovarian is 37.3 µM; in the assay with KM12 colon, 19.1 µM; in the assay on RPMI-8226 leukemia, 8.67 µM; with LOX IMVI melanoma it was 39.9 µM; in the assay with HOP-92 NSCLC it was 8.51 µM; in the assay on K-562 leukemia, greater than 100 µM. In addition, the TGI in the assay with SF-295 CNS came to 18.8 µM; in the assay with HCT-116 colon it was 3.47 µM; in the assay with MDA-N it was 4.81 µM; in the assay with SF-539 CNS it was 7.74 µM; with 786-0 renal, 3.61 µM; in the assay on UACC-257 melanoma, 2.4 µM.

For the compound `COC1=CC2C(c3cc4ccccc4n3S(=O)(=O)c3ccccc3)CC1CN2C(=O)OCc1ccccc1` (stereo unspecified), the TGI with SW-620 colon was greater than 100 µM; in the assay with OVCAR-8 ovarian it was greater than 100 µM; with HT29 colon it was 65.1 µM; with OVCAR-5 ovarian, 45.2 µM; in the assay with MALME-3M melanoma, 61 µM; with NCI/ADR-RES ovarian, greater than 100 µM. The TGI in the assay with KM12 colon was greater than 100 µM; in the assay on RPMI-8226 leukemia it was 44.6 µM; with LOX IMVI melanoma it was 57.7 µM; in the assay on K-562 leukemia, 76.5 µM; in the assay on SF-295 CNS it was greater than 100 µM; in the assay with HCT-116 colon, greater than 100 µM. Moreover, the TGI with MDA-N, in the assay on 786-0 renal, in the assay on HCC-2998 colon and with UACC-257 melanoma was greater than 100 µM throughout.

Turning to `CN1CCc2c(sc3ncn(C)c(=N)c23)C1`, the TGI in the assay with SW-620 colon, in the assay with SF-268 CNS, with OVCAR-8 ovarian, in the assay on HT29 colon, in the assay with OVCAR-5 ovarian and with MALME-3M melanoma was greater than 100 µM throughout. For the same compound, the TGI with NCI/ADR-RES ovarian, in the assay on KM12 colon, in the assay on RPMI-8226 leukemia, with LOX IMVI melanoma, with HOP-92 NSCLC and in the assay on K-562 leukemia was greater than 100 µM in each case. The TGI in the assay on SF-295 CNS, in the assay on HCT-116 colon, in the assay on MDA-N, in the assay with SF-539 CNS, in the assay on 786-0 renal and in the assay with UACC-257 melanoma was greater than 100 µM in each case.

For the compound `COc1ccc(-c2csc(Cc3nc4ccccc4c(=O)n3-c3ccc(Cl)cc3)n2)cc1`, the TGI was greater than 100 µM in the assay on SW-620 colon; greater than 100 µM with SF-268 CNS; greater than 100 µM in the assay on OVCAR-8 ovarian; greater than 100 µM with HT29 colon; 62.1 µM in the assay on OVCAR-5 ovarian; greater than 100 µM in the assay with MALME-3M melanoma. In addition, the total growth inhibition concentration (TGI) in the assay on NCI/ADR-RES ovarian is greater than 100 µM; with KM12 colon, greater than 100 µM; in the assay on RPMI-8226 leukemia, 45.8 µM; in the assay on LOX IMVI melanoma it was greater than 100 µM; in the assay with K-562 leukemia it was 41.8 µM; in the assay with SF-295 CNS it was greater than 100 µM. Moreover, the TGI is 57.9 µM with HCT-116 colon; 59 µM in the assay with MDA-N; greater than 100 µM with 786-0 renal; greater than 100 µM with HCC-2998 colon; greater than 100 µM in the assay on UACC-257 melanoma.

As to `O=C(Oc1ccccc1)N1c2ccccc2[C@@]23O[C@]24CCC[C@H]3C#C/C=C\C#C[C@H]14`, the TGI in the assay with SW-620 colon amounted to 23.5 µM; in the assay with SF-268 CNS it was 43.2 µM; with OVCAR-8 ovarian, 24.8 µM; in the assay with HT29 colon it was 23.2 µM; with OVCAR-5 ovarian it was 24.1 µM; with MALME-3M melanoma it was 22.1 µM. Moreover, the TGI is 33.2 µM in the assay on NCI/ADR-RES ovarian; 26.4 µM in the assay on KM12 colon; 32.9 µM in the assay on RPMI-8226 leukemia; 25.6 µM with LOX IMVI melanoma; 27 µM in the assay on HOP-92 NSCLC; greater than 100 µM in the assay with K-562 leukemia. The TGI in the assay on SF-295 CNS turned out to be 30.9 µM; in the assay with HCT-116 colon, 24.2 µM; in the assay on MDA-N, 26.9 µM; in the assay on SF-539 CNS it was 45.8 µM; in the assay on 786-0 renal, 22.2 µM; in the assay with UACC-257 melanoma, 28.7 µM.

Consider `CCCCSC1=N/C(=C\c2ccco2)C(Cl)=N1`, for which the TGI with SW-620 colon, in the assay on SF-268 CNS, in the assay on OVCAR-8 ovarian, with HT29 colon, in the assay on OVCAR-5 ovarian and with MALME-3M melanoma was greater than 100 µM throughout. The TGI in the assay with NCI/ADR-RES ovarian, with KM12 colon, with RPMI-8226 leukemia, in the assay on SF-295 CNS, in the assay with HCT-116 colon and with MDA-N was greater than 100 µM throughout. Further, the TGI in the assay on 786-0 renal, in the assay with HCC-2998 colon and with UACC-257 melanoma was greater than 100 µM in each case.

Consider `Oc1cc(O)cc(-c2nc3cc(F)ccc3s2)c1`, for which the TGI is greater than 100 µM in the assay on SW-620 colon; 50.8 µM with SF-268 CNS; 64.8 µM in the assay with OVCAR-8 ovarian; 44.8 µM in the assay on HT29 colon; 57.2 µM in the assay on OVCAR-5 ovarian; greater than 100 µM in the assay on MALME-3M melanoma. Besides, the TGI was greater than 100 µM in the assay on NCI/ADR-RES ovarian; 52.1 µM in the assay on KM12 colon; 50.2 µM with RPMI-8226 leukemia; 39.3 µM with LOX IMVI melanoma; 36 µM in the assay with SF-295 CNS; 65.5 µM with HCT-116 colon. In addition, the TGI with MDA-N was greater than 100 µM; in the assay with SF-539 CNS, 68.3 µM; in the assay with 786-0 renal, 47.1 µM; in the assay with UACC-257 melanoma it was 45.6 µM.
